Legend:
[1] = tested on: cellular H3K36me2 level in multiple myeloma cell line KMS11 (t(4;14)+); assay: H3K36me2 cellular FRET assay in KMS11-Par line; assay type: cell-based; settings: Homo sapiens, KMS-11, KMS11-Par line, cellular H3K36me2 level, FRET; read-out: H3K36me2 FRET in KMS11-Par
[2] = tested on: cellular H3K36me2 level in multiple myeloma cell line KMS11 (t(4;14)+); assay: H3K36me2 cellular ELISA assay in KMS11-Par line; assay type: cell-based; settings: Homo sapiens, KMS-11; KMS11-Par line (t(4;14)+), 72 hours treatment, ELISA; read-out: H3K36me2 ELISA in KMS11-Par
Procedure, shortened: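 After 72 h compound exposure, HCl-extracted histones from KMS11 (t(4;14)+) cells were probed by ELISA for H3K36me2 against total H3 with a chemiluminescence read-out. Cells were plated at 1,250/well in Opti-MEM plus B-27 and N2 the day before. A parallel CellTiter-Glo plate tracked viability.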

[3] = biological target: NSD2 [1-1365] (Homo sapiens (Human), UniProt O96028); assay: LC-MS/MS-based NSD2 enzymatic assay (SAH production); assay type: biochemical; settings: NSD2 biochemical activity, class symbols; read-out: NSD2 IC50
Procedure, shortened: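 SAH formed was measured by LC-MS/MS using d4-SAH as internal standard and an SAH calibration curve. Compounds were preincubated 20 min with NSD2 [1-1365] and SAM; mouse-liver nucleosome then started a 90 min room-temperature reaction (8 nM enzyme, 1 μM SAM, 400 nM nucleosome final, pH 8.0), stopped with TFA.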

[4] = tested on: cellular H3K36me2 level in thyroid carcinoma cell line CGTH-W-1 (NSD2 E1099K); assay: H3K36me2 cellular ELISA assay in CGTH-W-1 line; assay type: cell-based; settings: Homo sapiens, CGTH-W-1, 72 h, read-out: H3K36me2 ELISA in CGTH-W-1
Procedure, shortened: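 After 72 h compound treatment of NSD2 E1099K-mutant CGTH-W-1 cells, H3K36me2 and total H3 were quantified by ELISA with chemiluminescent read-out. A parallel-seeded plate gave cell viability by CellTiter-Glo.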

Sequence of NSD2 [1-1365] (O96028 whole entry): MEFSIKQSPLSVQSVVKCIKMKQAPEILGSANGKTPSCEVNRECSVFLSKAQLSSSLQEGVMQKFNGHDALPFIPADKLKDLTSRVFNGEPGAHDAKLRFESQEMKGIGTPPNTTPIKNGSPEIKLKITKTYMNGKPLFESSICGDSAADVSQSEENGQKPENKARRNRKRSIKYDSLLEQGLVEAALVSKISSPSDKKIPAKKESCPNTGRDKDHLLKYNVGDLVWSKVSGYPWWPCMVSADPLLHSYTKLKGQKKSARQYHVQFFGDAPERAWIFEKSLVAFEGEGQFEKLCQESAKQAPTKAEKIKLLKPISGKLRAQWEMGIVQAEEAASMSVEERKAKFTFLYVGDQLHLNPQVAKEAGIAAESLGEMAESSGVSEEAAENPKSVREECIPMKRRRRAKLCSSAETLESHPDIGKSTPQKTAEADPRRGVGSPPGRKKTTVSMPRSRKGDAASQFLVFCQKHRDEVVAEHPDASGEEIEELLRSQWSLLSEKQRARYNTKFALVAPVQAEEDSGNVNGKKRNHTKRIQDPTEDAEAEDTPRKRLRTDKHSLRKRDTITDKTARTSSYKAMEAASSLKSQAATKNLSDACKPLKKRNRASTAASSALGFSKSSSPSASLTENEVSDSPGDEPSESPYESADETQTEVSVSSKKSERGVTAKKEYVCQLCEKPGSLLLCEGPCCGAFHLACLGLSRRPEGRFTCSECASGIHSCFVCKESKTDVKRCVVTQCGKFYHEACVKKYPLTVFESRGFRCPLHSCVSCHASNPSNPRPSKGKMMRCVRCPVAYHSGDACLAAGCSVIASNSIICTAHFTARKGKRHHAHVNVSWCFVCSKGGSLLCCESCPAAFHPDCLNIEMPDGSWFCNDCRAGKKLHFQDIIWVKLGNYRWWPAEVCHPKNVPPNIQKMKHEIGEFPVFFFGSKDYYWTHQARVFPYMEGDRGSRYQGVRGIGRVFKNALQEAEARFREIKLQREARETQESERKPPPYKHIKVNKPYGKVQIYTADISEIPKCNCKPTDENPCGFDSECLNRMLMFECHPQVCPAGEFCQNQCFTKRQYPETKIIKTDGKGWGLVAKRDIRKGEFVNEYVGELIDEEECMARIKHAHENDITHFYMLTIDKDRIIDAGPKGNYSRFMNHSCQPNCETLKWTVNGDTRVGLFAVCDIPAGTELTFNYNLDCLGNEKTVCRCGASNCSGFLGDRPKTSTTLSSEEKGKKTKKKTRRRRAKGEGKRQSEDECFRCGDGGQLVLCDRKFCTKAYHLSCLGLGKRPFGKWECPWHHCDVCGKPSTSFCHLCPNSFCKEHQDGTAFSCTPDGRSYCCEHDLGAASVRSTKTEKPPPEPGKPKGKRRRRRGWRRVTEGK

SMILES | IC50 [1] [nM] | IC50 [2] [nM] | IC50 [3] [nM] | IC50 [4] [nM]
Nc1ncnc2c1ncn2Cc1cc(-c2ccc(F)c(F)c2)ncc1N1CCC[C@](N)(Cc2ncco2)C1 [Example 52, (S)-9-((5-(3-amino-3-(oxazol-2-ylmethyl)piperidin-1-yl)-2-(3,4-difluorophenyl)pyridin-4-yl)methyl)-9H-purin-6-amine] | 1200 | 1320 | 1 to 10 | 541
COc1ccc(-c2cc(Cn3cnc4c(N)ncnc43)c(N3CCC[C@](N)([C@H](C)OC)C3)cn2)cc1F [Example 93, 9-((5-((R)-3-amino-3-((S)-1-methoxyethyl)piperidin-1-yl)-2-(3-fluoro-4-methoxyphenyl)pyridin-4-yl)methyl)-9H-purin-6-amine] | 1390 | 3970 | 10 to 1000 | 3210
COc1ccc(-c2cc(Cn3cnc4c(N)ncnc43)c(N3CCC[C@](N)([C@@H](C)OC)C3)cn2)cc1F [Example 94, 9-((5-((R)-3-amino-3-((R)-1-methoxyethyl)piperidin-1-yl)-2-(3-fluoro-4-methoxyphenyl)pyridin-4-yl)methyl)-9H-purin-6-amine] | 3040 | 1200 | 10 to 1000 | 1090
CO[C@@H](C)[C@@]1(N)CCCN(c2cnc(-c3ccc(F)c(F)c3)cc2Cn2cnc3c(N)ncnc32)C1 [Example 95, 9-((5-((R)-3-amino-3-((S)-1-methoxyethyl)piperidin-1-yl)-2-(3,4-difluorophenyl)pyridin-4-yl)methyl)-9H-purin-6-amine] | 1820 | 3030 | 10 to 1000 | 1650
CO[C@H](C)[C@@]1(N)CCCN(c2cnc(-c3ccc(F)c(F)c3)cc2Cn2cnc3c(N)ncnc32)C1 [Example 97, 9-((5-((R)-3-amino-3-((R)-1-methoxyethyl)piperidin-1-yl)-2-(3,4-difluorophenyl)pyridin-4-yl)methyl)-9H-purin-6-amine] | 1500 | 1240 | 10 to 1000 | 1160

Reference: patent US11420970B1 (NOVARTIS AG, priority 2019, dated 2022)
